In the NIST ThermoML archive (doi:10.1021/je400659p):

Experiments:
[1] = xn = mol fraction of the nth substance listed; settings: 101 kPa, Liquid, Vibrating tube method
[2] = refractive index (Na D-line) (dimensionless); xn = mol fraction of the nth substance listed; settings: 101 kPa, Liquid, Standard Abbe refractometry

CCn1cc[n+](C)c1.F[B-](F)(F)F [1-ethyl-3-methylimidazolium tetrafluoroborate] + OCCO
Settings	mass density, [1] [kg/m3]	refractive index, [2]
293.15 K, x1 = 0.1249	1161.63	–
293.15 K, x1 = 0.2084	1184.1	–
293.15 K, x1 = 0.3046	1205.75	–
293.15 K, x1 = 0.4124	1224.93	–
293.15 K, x1 = 0.4763	1234.72	–
293.15 K, x1 = 0.5565	1245.69	–
293.15 K, x1 = 0.717	1264.34	–
293.15 K, x1 = 0.7826	1271.14	–
293.15 K, x1 = 0.901	1282.2	–
293.15 K, x1 = 1	1290.63	–
298.15 K, x1 = 0.1249	1157.85	1.4239
298.15 K, x1 = 0.2084	1180.23	1.4206
298.15 K, x1 = 0.3046	1201.79	1.4176
298.15 K, x1 = 0.4124	1220.94	1.4151
298.15 K, x1 = 0.4763	1230.74	1.414
298.15 K, x1 = 0.5565	1241.72	1.413
298.15 K, x1 = 0.717	1260.43	1.412
298.15 K, x1 = 0.7826	1267.25	1.4118
298.15 K, x1 = 0.901	1278.35	1.4115
298.15 K, x1 = 1	1286.82	1.4111
303.15 K, x1 = 0.1249	1154.08	1.4224
303.15 K, x1 = 0.2084	1176.36	1.4192
303.15 K, x1 = 0.3046	1197.84	1.4163
303.15 K, x1 = 0.4124	1216.96	1.4138
303.15 K, x1 = 0.4763	1226.77	1.4127
303.15 K, x1 = 0.5565	1237.77	1.4117
303.15 K, x1 = 0.717	1256.53	1.4105
303.15 K, x1 = 0.7826	1263.37	1.4103
303.15 K, x1 = 0.901	1274.51	1.4101
303.15 K, x1 = 1	1283.02	1.41
313.15 K, x1 = 0.1249	1146.54	1.4199
313.15 K, x1 = 0.2084	1168.63	1.4167
313.15 K, x1 = 0.3046	1189.98	1.4136
313.15 K, x1 = 0.4124	1209.07	1.411
313.15 K, x1 = 0.4763	1218.9	1.4099
313.15 K, x1 = 0.5565	1229.92	1.4089
313.15 K, x1 = 0.717	1248.81	1.4079
313.15 K, x1 = 0.7826	1255.69	1.4077
313.15 K, x1 = 0.901	1266.9	1.4076
313.15 K, x1 = 1	1275.45	1.4073
323.15 K, x1 = 0.1249	1138.98	1.4174
323.15 K, x1 = 0.2084	1160.91	1.4142
323.15 K, x1 = 0.3046	1182.17	1.4111
323.15 K, x1 = 0.4124	1201.24	1.4085
323.15 K, x1 = 0.4763	1211.09	1.4074
323.15 K, x1 = 0.5565	1222.17	1.4064
323.15 K, x1 = 0.717	1241.18	1.4054
323.15 K, x1 = 0.7826	1248.09	1.4054
323.15 K, x1 = 0.901	1259.36	1.4053
323.15 K, x1 = 1	1267.97	1.4051
333.15 K, x1 = 0.1249	1131.39	–
333.15 K, x1 = 0.2084	1153.19	–
333.15 K, x1 = 0.3046	1174.39	–
333.15 K, x1 = 0.4124	1193.47	–
333.15 K, x1 = 0.4763	1203.36	–
333.15 K, x1 = 0.5565	1214.49	–
333.15 K, x1 = 0.717	1233.6	–
333.15 K, x1 = 0.7826	1240.56	–
333.15 K, x1 = 0.901	1251.89	–
333.15 K, x1 = 1	1260.55	–
343.15 K, x1 = 0.1249	1123.78	–
343.15 K, x1 = 0.2084	1145.48	–
343.15 K, x1 = 0.3046	1166.65	–
343.15 K, x1 = 0.4124	1185.76	–
343.15 K, x1 = 0.4763	1195.68	–
343.15 K, x1 = 0.5565	1206.88	–
343.15 K, x1 = 0.717	1226.11	–
343.15 K, x1 = 0.7826	1233.11	–
343.15 K, x1 = 0.901	1244.49	–
343.15 K, x1 = 1	1253.18	–
353.15 K, x1 = 0.1249	1116.15	–
353.15 K, x1 = 0.2084	1137.77	–
353.15 K, x1 = 0.3046	1158.94	–
353.15 K, x1 = 0.4124	1178.1	–
353.15 K, x1 = 0.4763	1188.07	–
353.15 K, x1 = 0.5565	1199.33	–
353.15 K, x1 = 0.717	1218.68	–
353.15 K, x1 = 0.7826	1225.73	–
353.15 K, x1 = 0.901	1237.16	–
353.15 K, x1 = 1	1245.87	–
